This note sets out measurements from ChEMBL document CHEMBL5233229, “Recent advances in the development of ubiquitin-specific-processing protease 7 (USP7) inhibitors” (Eur J Med Chem, 2020).

A value given as a limit tells only on which side of the number the result lay.

Experiment [1] addresses T1, Ubiquitin carboxyl-terminal hydrolase 7 (Homo sapiens, UniProt Q93009). The experiment in a line: Inhibition of human USP7 using Ub-EKL as substrate by SDS-PAGE assay.
The target in experiment [2] is T2, Ubiquitin carboxyl-terminal hydrolase 47 (Homo sapiens, UniProt Q96K76).
T2 sequence (Q96K76 whole entry): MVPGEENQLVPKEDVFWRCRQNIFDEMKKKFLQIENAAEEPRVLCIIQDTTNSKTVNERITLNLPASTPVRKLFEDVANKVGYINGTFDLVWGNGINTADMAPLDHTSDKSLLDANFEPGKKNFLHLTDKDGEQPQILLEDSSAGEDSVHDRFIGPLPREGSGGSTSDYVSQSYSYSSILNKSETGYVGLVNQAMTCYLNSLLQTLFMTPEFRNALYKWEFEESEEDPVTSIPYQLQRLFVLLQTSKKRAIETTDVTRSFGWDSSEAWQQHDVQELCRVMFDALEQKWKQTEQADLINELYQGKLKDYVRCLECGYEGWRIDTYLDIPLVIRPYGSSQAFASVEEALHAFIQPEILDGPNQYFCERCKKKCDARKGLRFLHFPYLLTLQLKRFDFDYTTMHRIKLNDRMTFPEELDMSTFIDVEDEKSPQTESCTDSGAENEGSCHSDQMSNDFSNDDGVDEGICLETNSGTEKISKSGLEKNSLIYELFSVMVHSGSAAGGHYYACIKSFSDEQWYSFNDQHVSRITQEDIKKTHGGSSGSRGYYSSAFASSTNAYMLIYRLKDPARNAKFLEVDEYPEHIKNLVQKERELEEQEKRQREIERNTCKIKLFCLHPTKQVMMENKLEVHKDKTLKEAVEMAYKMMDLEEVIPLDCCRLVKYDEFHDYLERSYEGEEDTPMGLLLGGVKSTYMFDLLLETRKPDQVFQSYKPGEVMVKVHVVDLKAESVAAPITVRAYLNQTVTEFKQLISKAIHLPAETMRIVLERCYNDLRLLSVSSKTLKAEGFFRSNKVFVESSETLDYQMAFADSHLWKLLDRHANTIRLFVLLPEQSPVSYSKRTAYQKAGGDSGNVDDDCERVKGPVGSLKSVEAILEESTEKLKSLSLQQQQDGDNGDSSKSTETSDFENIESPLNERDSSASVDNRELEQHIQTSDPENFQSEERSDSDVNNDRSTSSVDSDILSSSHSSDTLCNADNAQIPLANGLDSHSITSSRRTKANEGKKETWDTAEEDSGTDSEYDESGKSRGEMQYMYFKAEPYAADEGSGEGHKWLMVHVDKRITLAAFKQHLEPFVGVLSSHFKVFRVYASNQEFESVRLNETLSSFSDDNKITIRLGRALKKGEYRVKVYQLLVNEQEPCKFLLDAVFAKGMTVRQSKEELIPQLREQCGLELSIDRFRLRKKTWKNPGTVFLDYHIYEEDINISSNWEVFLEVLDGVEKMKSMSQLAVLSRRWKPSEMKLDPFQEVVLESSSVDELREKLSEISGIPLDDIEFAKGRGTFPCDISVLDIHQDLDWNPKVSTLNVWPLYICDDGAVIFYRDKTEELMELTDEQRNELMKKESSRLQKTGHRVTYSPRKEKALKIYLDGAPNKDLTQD
Briefly: Inhibition of human USP47 using Ub-EKL as substrate by SDS-PAGE assay.

Experiment [3] addresses T1, Ubiquitin carboxyl-terminal hydrolase 7. Briefly: Inhibition of human USP7 using human N-terminal GST-tagged UBA52 as substrate preincubated for 10 mins followed by substrate addition measured after 45 mins by coomassie brilliant blue staining-based SDS-PAGE analysis.

T1 sequence (Q93009 whole entry): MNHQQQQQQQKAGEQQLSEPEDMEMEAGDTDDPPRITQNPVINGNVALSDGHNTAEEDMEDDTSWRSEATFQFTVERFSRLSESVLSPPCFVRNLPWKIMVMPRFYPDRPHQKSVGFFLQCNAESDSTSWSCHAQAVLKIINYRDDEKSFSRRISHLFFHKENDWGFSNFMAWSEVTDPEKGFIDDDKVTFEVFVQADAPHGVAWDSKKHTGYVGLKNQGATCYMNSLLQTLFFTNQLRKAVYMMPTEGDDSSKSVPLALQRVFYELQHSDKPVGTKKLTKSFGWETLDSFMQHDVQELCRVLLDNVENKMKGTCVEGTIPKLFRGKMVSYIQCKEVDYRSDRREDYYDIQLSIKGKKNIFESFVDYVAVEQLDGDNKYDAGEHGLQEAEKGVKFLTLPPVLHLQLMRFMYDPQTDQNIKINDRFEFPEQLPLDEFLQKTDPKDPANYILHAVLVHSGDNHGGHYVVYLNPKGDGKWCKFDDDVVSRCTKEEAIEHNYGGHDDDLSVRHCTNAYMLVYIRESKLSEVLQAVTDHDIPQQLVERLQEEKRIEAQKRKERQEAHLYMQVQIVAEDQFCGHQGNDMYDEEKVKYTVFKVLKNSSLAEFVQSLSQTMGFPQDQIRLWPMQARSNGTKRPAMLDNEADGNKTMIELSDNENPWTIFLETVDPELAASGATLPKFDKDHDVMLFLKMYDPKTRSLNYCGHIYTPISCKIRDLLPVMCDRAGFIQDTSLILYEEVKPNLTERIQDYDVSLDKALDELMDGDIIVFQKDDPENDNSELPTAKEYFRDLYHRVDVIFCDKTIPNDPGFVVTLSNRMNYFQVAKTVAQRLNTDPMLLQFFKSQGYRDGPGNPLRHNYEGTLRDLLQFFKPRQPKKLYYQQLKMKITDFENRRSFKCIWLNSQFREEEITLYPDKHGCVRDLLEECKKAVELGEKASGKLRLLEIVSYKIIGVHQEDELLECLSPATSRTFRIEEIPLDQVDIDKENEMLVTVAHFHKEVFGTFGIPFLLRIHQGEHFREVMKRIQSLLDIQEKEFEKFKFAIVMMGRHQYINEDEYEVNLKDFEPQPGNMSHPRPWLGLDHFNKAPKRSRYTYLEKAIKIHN

Usually EC50 stands for the concentration at which the effect is half-maximal. A high value points to lower potency in that assay. Consider `CN(C)CCOc1ccc(NC(=O)c2cc([N+](=O)[O-])c(Sc3c(Cl)cncc3Cl)s2)cc1`, for which the figures for the EC50 in experiment [1] and in experiment [2] were 0.5 µM and 0.45 µM, respectively. Consider `N#Cc1cc(C(=O)Nc2ccc3c(c2)S(=O)(=O)C=C3)sc1Sc1c(Cl)cncc1Cl`, for which the 50% effective concentration (EC50) is 0.59 µM in experiment [1] and 5.1 µM in experiment [2]. The IC50 is the midpoint of a concentration-inhibition curve. A high value points to lower potency. `C[C@H]1[C@H](C)CC[C@]2(C(=O)O)CC[C@]3(C)C(=CC[C@@H]4[C@@]5(C)C[C@@H](O)[C@H](O)[C@@](C)(CO)[C@@H]5[C@H](O)C[C@]43C)[C@H]12` [MADECASSIC ACID] returned an IC50 in experiment [3] greater than 50 µM. With `COCCNC1CS(=O)(=O)c2cc(NC(=O)c3cc([N+](=O)[O-])c(Sc4c(Cl)cncc4Cl)s3)ccc21` (stereo not drawn), the values for the EC50 in experiment [1] and in experiment [2] were 0.79 µM and 2 µM, respectively.

Consider `CS(=N)(=O)c1cccc(NC(=O)c2cc([N+](=O)[O-])c(Sc3c(Cl)cncc3Cl)s2)c1` (stereo not drawn), for which the concentration for a half-maximal effect (EC50) in experiment [1] is 2 µM; in experiment [2] it was 2.2 µM. The matching figures for `CN(C)CCNC1CS(=O)(=O)c2cc(NC(=O)c3cc([N+](=O)[O-])c(Sc4c(Cl)cncc4Cl)s3)ccc21` (stereo not drawn): 0.22 µM and 0.2 µM. The matching figures for `CS(=O)(=O)c1ccccc1NC(=O)c1cc([N+](=O)[O-])c(Sc2c(Cl)cncc2Cl)s1`: 0.85 µM and 9.3 µM. In the case of `CS(=O)(=O)c1ccc(NC(=O)c2cc([N+](=O)[O-])c(Sc3c(Cl)cncc3Cl)s2)cc1`, the EC50 came out at 6.8 µM in experiment [1] and 11.8 µM in experiment [2]. On the same counts, the results for `CC1CS(=O)(=O)c2cc(NC(=O)c3cc([N+](=O)[O-])c(Sc4c(Cl)cncc4Cl)s3)ccc21` (stereo not drawn) are 0.075 µM and 0.36 µM. The matching figures for `O=C(Nc1ccc2c(c1)S(=O)(=O)C=C2)c1cc([N+](=O)[O-])c(Sc2c(Cl)cncc2Cl)s1`: 0.1 µM and 1.33 µM.

Turning to `O=C(Nc1cccc(S(=O)(=O)CC2CC2)c1)c1cc([N+](=O)[O-])c(Sc2c(Cl)cncc2Cl)s1`, the 50% effective concentration (EC50) in experiment [1] amounted to 0.39 µM; in experiment [2], 1.5 µM. As for `CS(=O)(=O)c1cccc(NC(=O)c2cc([N+](=O)[O-])c(Sc3c(Cl)cncc3Cl)s2)c1`, the results for the half-maximal effective concentration (EC50) in experiment [1] and in experiment [2] were 0.51 µM and 1.4 µM, respectively. On the same counts, the results for `CCS(=O)(=O)c1cccc(NC(=O)c2cc([N+](=O)[O-])c(Sc3c(Cl)cncc3Cl)s2)c1` are 0.42 µM and 0.94 µM. On to `CC1CS(=N)(=O)c2cc(NC(=O)c3cc([N+](=O)[O-])c(Sc4c(Cl)cncc4Cl)s3)ccc21` (stereo not drawn), for which the 50% effective concentration (EC50) in experiment [1] is 0.47 µM; in experiment [2], 1.1 µM.

With `O=C(c1cc([N+](=O)[O-])c(Sc2c(Cl)cncc2Cl)s1)N1CCS(=O)(=O)CC1`, the results for the EC50 in experiment [1] and in experiment [2] were 4.3 µM and 6.4 µM, respectively. The matching figures for `O=C(NC1CCS(=O)(=O)C2COCCC12)c1cc([N+](=O)[O-])c(Sc2c(Cl)cncc2Cl)s1` (stereo not drawn): 4.8 µM and 4.1 µM. On the same counts, the results for `CC1=CS(=O)(=O)c2cc(NC(=O)c3cc([N+](=O)[O-])c(Sc4c(Cl)cncc4Cl)s3)ccc21` are 0.17 µM and 0.36 µM.

For the compound `O=C(NC1CCS(=O)(=O)CC1)c1cc([N+](=O)[O-])c(Sc2c(Cl)cncc2Cl)s1`, the concentration giving a half-maximal response (EC50) in experiment [1] was 2.1 µM; in experiment [2], 3.5 µM.

As for `O=C(Nc1ccc2c(c1)S(=O)(=O)CC2)c1cc([N+](=O)[O-])c(Sc2c(Cl)cncc2Cl)s1`, the 50% effective concentration (EC50) in experiment [1] came to 0.13 µM; in experiment [2], 2.03 µM. On the same counts, the results for `CS(=O)(=O)Nc1cccc(NC(=O)c2cc([N+](=O)[O-])c(Sc3c(Cl)cncc3Cl)s2)c1` are 0.64 µM and 1.28 µM. On the same counts, the results for `O=C(Nc1cccc(S(=O)(=O)C2CC2)c1)c1cc([N+](=O)[O-])c(Sc2c(Cl)cncc2Cl)s1` are 0.56 µM and 1.59 µM. On the same counts, the results for `O=C(NC1CCS(=O)(=O)c2ccccc21)c1cc([N+](=O)[O-])c(Sc2c(Cl)cncc2Cl)s1` (stereo not drawn) are 0.81 µM and 1.6 µM.
